Data reported in PubChem BioAssay AID1963966 (Molecular Pharmacology Branch, DTP, NCI, 2024).

System: 935938-334-R-J1-PDC spheroids with HUVEC/MSC, viability
Assay: Anticancer human tumor 935938-334-R-J1-PDC patient-derived small intestine adenocarcinoma cell line growth inhibition [PI3K]
Settings: for IC50: curve of first compound; for viability, T/C: stronger effect = lower value
In short: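 Three cell types, namely tumor cells, endothelial cells and mesenchymal stem cells, formed each spheroid. Combinations with four PI3K inhibitors were screened at clinically achievable concentrations decreasing by half-log, and spheroid viability was recorded.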

[1] = second compound 0.0316 µM, first compound 0.000316 µM
[2] = second compound 0.0316 µM, first compound 0.001 µM
[3] = second compound 0.0316 µM, first compound 0.00316 µM
[4] = second compound 0.0316 µM, first compound 0.01 µM
[5] = second compound 0.0316 µM, first compound 0.0316 µM
[6] = second compound 0.0316 µM, first compound 0.1 µM
[7] = second compound 0.1 µM, first compound 0.000316 µM
[8] = second compound 0.1 µM, first compound 0.001 µM
[9] = second compound 0.1 µM, first compound 0.00316 µM
[10] = second compound 0.1 µM, first compound 0.01 µM
[11] = second compound 0.1 µM, first compound 0.0316 µM
[12] = second compound 0.1 µM, first compound 0.1 µM
[13] = second compound 0.316 µM, first compound 0.000316 µM
[14] = second compound 0.316 µM, first compound 0.001 µM
[15] = second compound 0.316 µM, first compound 0.00316 µM
[16] = second compound 0.316 µM, first compound 0.01 µM
[17] = second compound 0.316 µM, first compound 0.0316 µM
[18] = second compound 0.316 µM, first compound 0.1 µM
[19] = second compound 1 µM, first compound 0.000316 µM
[20] = second compound 1 µM, first compound 0.001 µM
[21] = second compound 1 µM, first compound 0.00316 µM
[22] = second compound 1 µM, first compound 0.01 µM
[23] = second compound 1 µM, first compound 0.0316 µM
[24] = second compound 1 µM, first compound 0.1 µM
[25] = second compound 3.16 µM, first compound 0.000316 µM
[26] = second compound 3.16 µM, first compound 0.001 µM
[27] = second compound 3.16 µM, first compound 0.00316 µM
[28] = second compound 3.16 µM, first compound 0.01 µM
[29] = second compound 3.16 µM, first compound 0.0316 µM
[30] = second compound 3.16 µM, first compound 0.1 µM
[31] = second compound 10 µM, first compound 0.000316 µM
[32] = second compound 10 µM, first compound 0.001 µM
[33] = second compound 10 µM, first compound 0.00316 µM
[34] = second compound 10 µM, first compound 0.01 µM
[35] = second compound 10 µM, first compound 0.0316 µM
[36] = second compound 10 µM, first compound 0.1 µM
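Further: compound exposure lasted seven days before viability was read.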
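Wherever viability, T/C is given: percent of vehicle DMSO treated spheroid viability so 100% = untreated.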

For `CC(=O)c1c(C)c2cnc(Nc3ccc(N4CCNCC4)cn3)nc2n(C2CCCC2)c1=O` + CC(Nc1ncnc2nc[nH]c12)c1cc2cccc(Cl)c2c(=O)n1-c1ccccc1, the IC50 (second compound 0.0316 µM) was > 100 nM, the IC50 (second compound 0.1 µM) was > 100 nM and the IC50 (second compound 0.316 µM) was > 100 nM. For the same compound, the IC50 (second compound 1 µM) was > 100 nM, the IC50 (second compound 3.16 µM) was 79.4 nM and the IC50 (second compound 10 µM) was 49 nM. The viability, T/C [1] was 105%, the viability, T/C [2] was 108% and the viability, T/C [3] was 99%. For the same compound, the viability, T/C [4] was 97.2%, the viability, T/C [5] was 90% and the viability, T/C [6] was 73%. The viability, T/C [7] was 103%, the viability, T/C [8] was 103% and the viability, T/C [9] was 93%. It also gave a viability, T/C [10] of 69.5%, a viability, T/C [11] of 91.5% and a viability, T/C [12] of 74.6%. The viability, T/C [13] was 68.6%, the viability, T/C [14] was 91.2% and the viability, T/C [15] was 105%. It also gave a viability, T/C [16] of 89.7%, a viability, T/C [17] of 71.6% and a viability, T/C [18] of 64.9%. It also gave a viability, T/C [19] of 99.8%, a viability, T/C [20] of 109% and a viability, T/C [21] of 93%. It also gave a viability, T/C [22] of 88.5%, a viability, T/C [23] of 69.5% and a viability, T/C [24] of 53.4%. The viability, T/C [25] was 96.7%, the viability, T/C [26] was 111% and the viability, T/C [27] was 97.6%. It also gave a viability, T/C [28] of 86.3%, a viability, T/C [29] of 73.5% and a viability, T/C [30] of 44.1%. The viability, T/C [31] was 87.1%, the viability, T/C [32] was 83.7% and the viability, T/C [33] was 78.4%. It also gave a viability, T/C [34] of 67.1%, a viability, T/C [35] of 56.7% and a viability, T/C [36] of 40.2%.

With `CC(C)n1nc(-c2ccc3oc(N)nc3c2)c2c(N)ncnc21` + CC(Nc1ncnc2nc[nH]c12)c1cc2cccc(Cl)c2c(=O)n1-c1ccccc1 the IC50 (second compound 0.0316 µM) was > 100 nM, the IC50 (second compound 0.1 µM) was > 100 nM and the IC50 (second compound 0.316 µM) was > 100 nM. For the same compound, the IC50 (second compound 1 µM) was > 100 nM, the IC50 (second compound 3.16 µM) was > 100 nM and the IC50 (second compound 10 µM) was 71.6 nM. The viability, T/C [1] was 120%, the viability, T/C [2] was 104% and the viability, T/C [3] was 99.8%. It also gave a viability, T/C [4] of 99.1%, a viability, T/C [5] of 78.6% and a viability, T/C [6] of 62.9%. The viability, T/C [7] was 97.3%, the viability, T/C [8] was 85.9% and the viability, T/C [9] was 84.5%. For the same compound, the viability, T/C [10] was 91.3%, the viability, T/C [11] was 88.3% and the viability, T/C [12] was 62%. For the same compound, the viability, T/C [13] was 78.2%, the viability, T/C [14] was 85.6% and the viability, T/C [15] was 83.2%. For the same compound, the viability, T/C [16] was 96.2%, the viability, T/C [17] was 72.1% and the viability, T/C [18] was 57.9%. The viability, T/C [19] was 111%, the viability, T/C [20] was 91.7% and the viability, T/C [21] was 81.5%. For the same compound, the viability, T/C [22] was 84%, the viability, T/C [23] was 82.4% and the viability, T/C [24] was 47.6%. The viability, T/C [25] was 87.5%, the viability, T/C [26] was 74% and the viability, T/C [27] was 76.7%. For the same compound, the viability, T/C [28] was 70.4%, the viability, T/C [29] was 57.6% and the viability, T/C [30] was 51.2%. For the same compound, the viability, T/C [31] was 72.7%, the viability, T/C [32] was 94.1% and the viability, T/C [33] was 61.5%. The viability, T/C [34] was 71.5%, the viability, T/C [35] was 68.5% and the viability, T/C [36] was 43%.
